From patent US12583858B2 (Genentech, Inc., priority 2015, dated 2026) come the findings set out here.

The target in one test is T1, IDO (Homo sapiens, UniProt P14902).
T1 construct: selective against A172+IFNg cells (high IDO expressing cells)
Briefly: IDO cell assay (NFK GreenScreen, A172+IFNg cells). Format: cell-based. The following applies: A172 cells + 100 ng/ml IFNγ (high IDO expressing), 100 uM tryptophan, 24 hours; TDO selectivity table; read-out: IDO cell Fluor EC50. On the procedure: Cells are counted on a Vi-Cell (Beckman Coulter). […] The final DMSO concentration is 0.5%.
Compounds of the invention were tested for selectivity against TDO over IDO. The cell based assay described above was used to test for TDO and IDO activity.

A further test concerns the target T2, TDO2 (Homo sapiens, UniProt P48775).
T2 construct: decreased levels of NFK in SW48 cells (high TDO expressing cells)
Briefly: TDO2 cell assay (NFK GreenScreen, SW48 cells). It counts as cell-based. The following applies: SW48 cells (high TDO expressing).

The mark [1] stands for this setting: 200 uM tryptophan, 24 hours, Table 3, read-out: TDO2 Cell Fluor EC50.
Setting [2] is: TDO selectivity table, read-out: TDO2 cell Fluor EC50.

Read-outs that look alike come from different tables or passages of the source. Some results are limits rather than exact numbers.

T2 sequence (P48775 whole entry): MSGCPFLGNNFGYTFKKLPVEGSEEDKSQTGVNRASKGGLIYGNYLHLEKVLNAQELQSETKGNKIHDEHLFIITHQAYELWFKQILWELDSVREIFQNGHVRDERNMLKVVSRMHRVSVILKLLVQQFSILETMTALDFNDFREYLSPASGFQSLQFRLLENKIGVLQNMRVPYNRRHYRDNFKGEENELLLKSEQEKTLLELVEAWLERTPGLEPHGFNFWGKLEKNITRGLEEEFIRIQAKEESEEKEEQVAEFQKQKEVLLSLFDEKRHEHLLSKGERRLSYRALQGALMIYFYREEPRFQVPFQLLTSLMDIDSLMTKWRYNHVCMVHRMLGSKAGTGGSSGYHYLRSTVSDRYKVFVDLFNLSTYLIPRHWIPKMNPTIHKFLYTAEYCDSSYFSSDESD
T1 sequence (P14902 whole entry): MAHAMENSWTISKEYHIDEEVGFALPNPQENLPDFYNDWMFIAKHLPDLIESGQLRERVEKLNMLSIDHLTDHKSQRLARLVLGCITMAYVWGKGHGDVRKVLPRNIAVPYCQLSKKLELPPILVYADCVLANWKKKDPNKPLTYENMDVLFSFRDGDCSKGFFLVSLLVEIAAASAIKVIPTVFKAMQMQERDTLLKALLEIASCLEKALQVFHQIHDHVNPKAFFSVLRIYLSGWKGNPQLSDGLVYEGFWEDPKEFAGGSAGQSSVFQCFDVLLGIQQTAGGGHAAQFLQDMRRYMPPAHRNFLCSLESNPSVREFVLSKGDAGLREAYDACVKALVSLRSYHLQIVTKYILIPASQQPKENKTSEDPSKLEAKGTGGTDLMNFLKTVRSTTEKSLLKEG

On to `OC1c2cnccc2CCC1C1c2ccccc2-c2cncn21` (single isomer, unassigned) [Example 04e], for which the EC50 was 1200 nM on IDO, 49 nM on TDO2 (setting [1]) and 49 nM on TDO2 (setting [2]).

As to `Cn1ncc2c1CCC(C1c3ccccc3-c3cncn31)C2O` (single isomer, unassigned) [Example 93a], the EC50 at IDO turned out to be 13000 nM; on TDO2 (setting [1]), 380 nM; at TDO2 (setting [2]), 380 nM.

Turning to `OC1c2cncnc2CCC1C1c2ccccc2-c2cncn21` (single isomer, unassigned) [Example 94c], the results for the EC50 on IDO, on TDO2 (setting [1]) and on TDO2 (setting [2]) were 8400 nM, 110 nM and 110 nM, respectively.

In the case of `NS(=O)(=O)c1ccc2c(c1)CCC(C1c3ccccc3-c3cncn31)C2O` (single isomer, unassigned) [Example 100g], the EC50 at IDO is 1700 nM; on TDO2 (setting [1]) it was 57 nM; at TDO2 (setting [2]), 57 nM.

Take `NS(=O)(=O)N1CCC(O)C(C2c3ccccc3-c3cncn32)CC1` (single isomer, unassigned) [Example 101d, 4-hydroxy-5-(5H-imidazo[5,1-a]isoindol-5-yl)azepane-1-sulfonamide]: the EC50 on IDO worked out at 21000 nM; at TDO2 (setting [1]), 770 nM; on TDO2 (setting [2]) it was 770 nM.

On to `OC1C(C2c3ccc(F)cc3-c3cncn32)CC12CCOCC2` (single isomer, unassigned) [Example 109c], for which the EC50 on IDO was more than 25000 nM; at TDO2 (setting [1]), 230 nM; at TDO2 (setting [2]), 230 nM.

On to `OC1c2cnncc2CCC1C1c2ccccc2-c2cncn21` (single isomer, unassigned) [Example 112b], for which the EC50 at IDO was 15000 nM; on TDO2 (setting [1]) it was 240 nM; at TDO2 (setting [2]), 240 nM.

Regarding `NC(=O)c1ccc2c(c1)C(O)C(C1c3ccccc3-c3cncn31)CC2` (single isomer, unassigned) [Example 122a], the EC50 at IDO amounted to 2600 nM; on TDO2 (setting [1]), 35 nM; at TDO2 (setting [2]), 35 nM.

For the molecule `Cn1cc2c(n1)CCC(C1c3ccccc3-c3cncn31)C2O` (single isomer, unassigned) [Example 130d], the EC50 at IDO amounted to 1800 nM; on TDO2 (setting [1]), 87 nM; on TDO2 (setting [2]), 87 nM.

With `NC(=O)c1nc2c(s1)CCC(C1c3ccccc3-c3cncn31)C2O` (single isomer, unassigned) [Example 149b], the results for the EC50 at IDO, at TDO2 (setting [1]) and at TDO2 (setting [2]) were 2100 nM, 55 nM and 55 nM, respectively.

For `OC1c2[nH]ncc2CCC1C1c2ccccc2-c2cncn21` (single isomer, unassigned) [Example 157g], the EC50 was 8000 nM at IDO, 42 nM at TDO2 (setting [1]) and 42 nM at TDO2 (setting [2]).

As for `O[C@@H]1CC[C@H]1[C@H]1c2ccccc2-c2cncn21` [Example 01d, (1R,2S)-2-((S)-5H-imidazo[5,1-a]isoindol-5-yl)cyclobutan-1-ol], the EC50 on IDO was found to be 2400 nM; on TDO2 (setting [1]), 37 nM; on TDO2 (setting [2]), 37 nM.

In the case of `O[C@@H]1c2cncn2CC[C@H]1[C@H]1c2ccccc2-c2cncn21` [Example 07h, (7S,8S)-7-((S)-5H-imidazo[5,1-a]isoindol-5-yl)-5,6,7,8-tetrahydroimidazo[1,5-a]pyridin-8-ol], the EC50 was more than 25000 nM at IDO, 860 nM at TDO2 (setting [1]) and 860 nM at TDO2 (setting [2]).

Consider `CCS(=O)(=O)N1CC[C@@H]([C@H]2c3ccccc3-c3cncn32)[C@H](O)C1` [Example 16a, (3S,4S)-1-(ethylsulfonyl)-4-((S)-5H-imidazo[5,1-a]isoindol-5-yl)piperidin-3-ol], for which the EC50 at IDO amounted to 1200 nM; at TDO2 (setting [1]), 110 nM; on TDO2 (setting [2]), 110 nM.

With `CC1(C)C[C@@H](O)[C@@H]1[C@H]1c2ccccc2-c2cncn21` [Example 22b, (1R,2S)-2-((S)-5H-imidazo[5,1-a]isoindol-5-yl)-3,3-dimethylcyclobutan-1-ol], the EC50 was determined as 2000 nM at IDO, 16 nM on TDO2 (setting [1]) and 16 nM at TDO2 (setting [2]).

With `C[C@H](O)[C@H]1c2ccccc2-c2cncn21` [Example 42c, (S)-1-((R)-5H-imidazo[5,1-a]isoindol-5-yl)ethan-1-ol], the EC50 on IDO came to 5000 nM; on TDO2 (setting [1]) it was 250 nM; on TDO2 (setting [2]), 250 nM.

For the molecule `O[C@@H]1c2ccnn2CC[C@H]1[C@H]1c2ccccc2-c2cncn21` [Example 56a, (4S,5S)-5-((S)-5H-imidazo[5,1-a]isoindol-5-yl)-4,5,6,7-tetrahydropyrazolo[1,5-a]pyridin-4-ol], the EC50 was 4500 nM at IDO, 150 nM at TDO2 (setting [1]) and 150 nM on TDO2 (setting [2]).

Consider `NC(=O)c1ccc2c(c1)CC[C@@H]([C@H]1c3ccccc3-c3cncn31)[C@@H]2O` [Example 60e, (5S,6S)-5-hydroxy-6-((S)-5H-imidazo[5,1-a]isoindol-5-yl)-5,6,7,8-tetrahydronaphthalene-2-carboxamide], for which the EC50 at IDO worked out at 1400 nM; on TDO2 (setting [1]) it was 35 nM; on TDO2 (setting [2]) it was 35 nM.

As to `O[C@@H]1c2c(Cl)cnn2CC[C@@H]1[C@@H]1c2ccccc2-c2cncn21` [Example 160a, (4S,5R)-3-chloro-5-((R)-5H-imidazo[5,1-a]isoindol-5-yl)-4,5,6,7-tetrahydropyrazolo[1,5-a]pyridin-4-ol], on TDO2 (setting [1]), the EC50 is more than 25000 nM.

`O[C@H]1c2c(Cl)cnn2CC[C@H]1[C@H]1c2ccccc2-c2cncn21` [Example 160b, (4R,5S)-3-chloro-5-((S)-5H-imidazo[5,1-a]isoindol-5-yl)-4,5,6,7-tetrahydropyrazolo[1,5-a]pyridin-4-ol]: the EC50 on TDO2 (setting [1]) worked out at 200 nM.

For the molecule `Nc1cc2n(n1)CC[C@H]([C@H]1c3ccccc3-c3cncn31)[C@H]2O` [Example 161a, (4R,5R)-2-amino-5-((S)-5H-imidazo[5,1-a]isoindol-5-yl)-4,5,6,7-tetrahydropyrazolo[1,5-a]pyridin-4-ol], on TDO2 (setting [1]), the EC50 came to 18000 nM.

Consider `Nc1cc2n(n1)CC[C@@H]([C@H]1c3ccccc3-c3cncn31)[C@@H]2O` [Example 161b, (4S,5S)-2-amino-5-((S)-5H-imidazo[5,1-a]isoindol-5-yl)-4,5,6,7-tetrahydropyrazolo[1,5-a]pyridin-4-ol], for which the EC50 at TDO2 (setting [1]) came to 700 nM.

For the molecule `Nc1cc2n(n1)CCC(C1c3ccccc3-c3cncn31)C2O` [Example 161d, (4S,5R)-2-amino-5-((S)-5H-imidazo[5,1-a]isoindol-5-yl)-4,5,6,7-tetrahydropyrazolo[1,5-a]pyridin-4-ol], at TDO2 (setting [1]), the EC50 is 12000 nM.

Consider `Nc1cc2n(n1)CCC(C1c3ccccc3-c3cncn31)C2O` [Example 161f, (4R,5S)-2-amino-5-((R)-5H-imidazo[5,1-a]isoindol-5-yl)-4,5,6,7-tetrahydropyrazolo[1,5-a]pyridin-4-ol], for which, at TDO2 (setting [1]), the EC50 was more than 25000 nM.

For the molecule `NC(=O)C1([C@@H](O)[C@H]2c3ccccc3-c3cncn32)CC1` [Example 165a, 1-((R)-hydroxy((R)-5H-imidazo[5,1-a]isoindol-5-yl)methyl)cyclopropane-1-carboxamide], the EC50 on TDO2 (setting [1]) is 16000 nM.

Regarding `NC(=O)C1([C@@H](O)[C@@H]2c3ccccc3-c3cncn32)CC1` [Example 165b, 1-((R)-hydroxy ((S)-5H-imidazo[5,1-a]isoindol-5-yl)methyl)cyclopropane-1-carboxamide], the EC50 at TDO2 (setting [1]) was more than 25000 nM.

Take `NC(=O)C1([C@H](O)[C@@H]2c3ccccc3-c3cncn32)CC1` [Example 165d, 1-((S)-hydroxy ((S)-5H-imidazo[5,1-a]isoindol-5-yl)methyl)cyclopropane-1-carboxamide]: on TDO2 (setting [1]), the EC50 was more than 25000 nM.

Take `CS(=O)(=O)N1CC2(CC(C3c4ccccc4-c4cncn43)C2O)C1` (stereo not shown) [Example 183, 6-(5H-imidazo[5,1-a]isoindol-5-yl)-2-(methylsulfonyl)-2-azaspiro[3.3]heptan-5-ol]: on TDO2 (setting [1]), the EC50 is 220 nM.

A word on the EC50: it is the concentration needed to bring the measured effect to its halfway point.
